Data on 16 molecules can be found in US11919883B2, “Metalloenzyme inhibitor compounds” (Ji Xing Pharmaceuticals Hong Kong Limited, priority 2016, dated 2024).

Assay [1] deals with T1, recombinant human CYP11B2 (Homo sapiens, UniProt P19099).
T1 construct: made in house; host or cells: V79-4 cells (enzyme enriched microsomal fraction of cell lysates)
T1 sequence (P19099 25-503): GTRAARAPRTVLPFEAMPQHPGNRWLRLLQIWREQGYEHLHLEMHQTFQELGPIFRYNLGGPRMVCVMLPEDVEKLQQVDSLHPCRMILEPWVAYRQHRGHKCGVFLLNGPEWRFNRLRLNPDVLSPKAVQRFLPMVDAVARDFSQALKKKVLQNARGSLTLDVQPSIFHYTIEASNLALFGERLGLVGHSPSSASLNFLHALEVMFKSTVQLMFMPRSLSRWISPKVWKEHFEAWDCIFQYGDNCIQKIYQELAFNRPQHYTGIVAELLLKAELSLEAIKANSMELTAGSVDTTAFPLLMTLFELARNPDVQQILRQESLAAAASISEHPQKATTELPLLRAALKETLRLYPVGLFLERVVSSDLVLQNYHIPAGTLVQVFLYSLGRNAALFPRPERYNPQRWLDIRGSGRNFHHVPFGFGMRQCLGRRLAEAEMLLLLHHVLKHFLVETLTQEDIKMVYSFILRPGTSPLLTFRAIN
The assay can be described thus: CYP11B2 enzyme assay, enzyme enriched microsomes from V79-4 cells, aldosterone by LC-MS. The settings on record: IC50 ranges; run at Km of 11-deoxycorticosterone; read-out: hCYP11B2 IC50. It is filed as biochemical.
Method: (§1) An enzyme enriched microsomal fraction was prepared from cellular lysates and subsequently used as the enzyme source for determining inhibitor IC50s. […] Enzyme assays for inhibitor screening employed CYP11B2 and CYP11B1 enzyme enriched microsomes and were run at the Km of the respective substrates. Products of the enzyme reactions, aldosterone for CYP11B2 or cortisol for CYP11B1, were measured by LC-MS. Assays were run under conditions of less than 20% substrate turnover. Inhibitor IC50s were generated by determining the product formation in the absence or presence of inhibitor at various concentrations. In the absence of the test compound, the product formed (Pt) in each data set was defined as 100% activity. In the absence of enzyme, the product formed (Pb) in each data set was defined as 0% activity. The percent activity in the presence of each inhibitor was calculated according to the following equation: % activity=(P−Pb)/(Pt−Pb), where P=the product formed in the presence of the inhibitor.

The target in assay [2] is T2, recombinant human CYP11B1 (Homo sapiens, UniProt P15538).
T2 construct: made in house; host or cells: V79-4 cells (enzyme enriched microsomal fraction of cell lysates)
T2 sequence (P15538 25-503): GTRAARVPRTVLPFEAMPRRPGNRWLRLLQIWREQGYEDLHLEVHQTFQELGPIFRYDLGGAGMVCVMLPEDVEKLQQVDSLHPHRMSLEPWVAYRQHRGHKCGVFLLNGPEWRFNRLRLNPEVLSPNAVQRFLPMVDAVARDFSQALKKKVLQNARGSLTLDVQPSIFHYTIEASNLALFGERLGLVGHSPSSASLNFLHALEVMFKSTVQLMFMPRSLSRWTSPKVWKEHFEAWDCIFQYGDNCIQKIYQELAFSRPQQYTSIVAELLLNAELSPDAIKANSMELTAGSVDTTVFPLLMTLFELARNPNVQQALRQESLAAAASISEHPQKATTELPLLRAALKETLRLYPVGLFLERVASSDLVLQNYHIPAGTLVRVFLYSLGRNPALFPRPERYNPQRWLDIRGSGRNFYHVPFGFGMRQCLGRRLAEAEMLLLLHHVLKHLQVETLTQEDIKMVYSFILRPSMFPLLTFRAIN
The assay can be described thus: CYP11B1 enzyme assay, enzyme enriched microsomes from V79-4 cells, cortisol by LC-MS. It is filed as biochemical. The settings on record: IC50 ranges; run at Km of 11-deoxycortisol; read-out: hCYP11B1 IC50.
Method: as §1

Take `Fc1ccc2nc(-c3cncnc3)n(C3CC3)c2c1F` [Example 2, 1-Cyclopropyl-6,7-difluoro-2-(pyrimidin-5-yl)-1H-benzo[d]imidazole]: the IC50 in assay [1] was 100 to 1000 nM; in assay [2] it was 1000 to 10000 nM.
In the same order, the values of `N#Cc1ccc2nc(-c3cncnc3)n(C3CC3)c2c1` [Example 3, 1-Cyclopropyl-2-(pyrimidin-5-yl)-1H-benzo[d]imidazole-6-carbonitrile] are 1 to 100 nM and 1000 to 10000 nM.
`Cc1ncncc1-c1nc2ccc(F)cc2n1C1CC1` [Example 4, 1-Cyclopropyl-6-fluoro-2-(4-methylpyrimidin-5-yl)-1H-benzo[d]imidazole]: the figures for the IC50 in assay [1] and in assay [2] were 1 to 100 nM and 1000 to 10000 nM, respectively.
Regarding `CCc1ncncc1-c1nc2ccc(F)cc2n1C1CC1` [Example 5, 1-Cyclopropyl-2-(4-ethylpyrimidin-5-yl)-6-fluoro-1H-benzo[d]imidazole], the figures for the IC50 in assay [1] and in assay [2] were 1 to 100 nM and 1000 to 10000 nM, respectively.
Regarding `COc1ncncc1-c1nc2ccc(F)cc2n1C1CC1` [Example 6, 1-Cyclopropyl-6-fluoro-2-(4-methoxypyrimidin-5-yl)-1H-benzo[d]imidazole], the IC50 in assay [1] was 100 to 1000 nM; in assay [2], over 10000 nM.
Regarding `Fc1cc2nc(-c3cncnc3)n(C3CC3)c2cc1F` [Example 7, 1-Cyclopropyl-5,6-difluoro-2-(pyrimidin-5-yl)-1H-benzo[d]imidazole], the IC50 in assay [1] lay within 1 to 100 nM; in assay [2] it was 1000 to 10000 nM.
On the same counts, the results for `CCc1ncncc1-c1nc2ccc(C#N)cc2n1C1CC1` [Example 8, 1-Cyclopropyl-2-(4-ethylpyrimidin-5-yl)-1H-benzo[d]imidazole-6-carbonitrile] are 1 to 100 nM and 1000 to 10000 nM.
On the same counts, the results for `Fc1ccc2nc(-c3cncnc3Cl)n(C3CC3)c2c1` [Example 9, 2-(4-Chloropyrimidin-5-yl)-1-cyclopropyl-6-fluoro-1H-benzo[d]imidazole] are 1 to 100 nM and 1000 to 10000 nM.
In the case of `N#Cc1ncncc1-c1nc2ccc(F)cc2n1C1CC1` [Example 10, 5-(1-Cyclopropyl-6-fluoro-1H-benzo[d]imidazol-2-yl)pyrimidine-4-carbonitrile], the figures for the IC50 in assay [1] and in assay [2] were 1 to 100 nM and 1000 to 10000 nM, respectively.
In the case of `CCc1ncncc1-c1nc2ccc(Cl)cc2n1C1CC1` [Example 11, 6-Chloro-1-cyclopropyl-2-(4-ethylpyrimidin-5-yl)-1H-benzo[d]imidazole], the IC50 in assay [1] fell in the range of 1 to 100 nM; in assay [2], 1000 to 10000 nM.
Consider `CNc1ncncc1-c1nc2ccc(F)cc2n1C1CC1` [Example 12, 5-(1-Cyclopropyl-6-fluoro-1H-benzo[d]imidazol-2-yl)-N-methylpyrimidin-4-amine], for which the IC50 is 1 to 100 nM in assay [1] and 100 to 1000 nM in assay [2].
Regarding `CC(C)c1ncncc1-c1nc2ccc(F)cc2n1C1CC1` [Example 13, 1-Cyclopropyl-6-fluoro-2-(4-isopropylpyrimidin-5-yl)-1H-benzo[d]imidazole], the IC50 was in the range of 1 to 100 nM in assay [1] and 1000 to 10000 nM in assay [2].
Turning to `CCCc1ncncc1-c1nc2ccc(F)cc2n1C1CC1` [Example 14, 1-Cyclopropyl-6-fluoro-2-(4-propylpyrimidin-5-yl)-1H-benzo[d]imidazole], the IC50 in assay [1] was in the range of 1 to 100 nM; in assay [2], 1000 to 10000 nM.
For the molecule `Fc1ccc2nc(-c3cncnc3C(F)F)n(C3CC3)c2c1` [Example 15, 1-Cyclopropyl-2-(4-(difluoromethyl)pyrimidin-5-yl)-6-fluoro-1H-benzo[d]imidazole], the IC50 in assay [1] was 1 to 100 nM; in assay [2], 1000 to 10000 nM.
In the case of `CCc1ncncc1-c1nc2ccc(F)cc2n1CC` [Example 16, 1-Ethyl-2-(4-ethylpyrimidin-5-yl)-6-fluoro-1H-benzo[d]imidazole], the IC50 lay within 100 to 1000 nM in assay [1] and 1000 to 10000 nM in assay [2].
Regarding `CCc1ncncc1-c1nc2ccc(F)c(F)c2n1C1CC1` [Example 17, 1-Cyclopropyl-2-(4-ethylpyrimidin-5-yl)-6,7-difluoro-1H-benzo[d]imidazole], the IC50 in assay [1] is 1 to 100 nM; in assay [2], 1000 to 10000 nM.

For orientation: IC50 means the concentration at which inhibition is half-maximal.
